This note sets out measurements from ChEMBL document CHEMBL1133198, “Prenylated xanthones as potential P-glycoprotein modulators” (Bioorg Med Chem Lett, 2000).

The nature of the assay: Binding affinity of compound to P-glycoprotein recombinant domain of prenylated xanthones was evaluated.
With `COc1cc(O)c2c(=O)c3c(OC)c(OC)ccc3oc2c1` [DECUSSATIN], the Kd turned out to be 28.8 µM.
With `COc1cc2oc3ccc(OC)c(OC)c3c(=O)c2c(O)c1CC=C(C)C` the figure was 0.39 µM; with `COc1cc(O)c2c(=O)c3c(OC)c(OC)ccc3oc2c1CC=C(C)C`, 0.59 µM.
Turning to `COCCOCOc1cc(O)c2c(=O)cc(-c3ccccc3)oc2c1`, the dissociation constant Kd was found to be 8.05 µM.
With `COc1cc(OCC=C(C)C)c2c(=O)c3c(OC)c(OC)ccc3oc2c1` the figure was 13.9 µM; with `COCCOCOc1cc(OCC=C(C)C)c2c(=O)cc(-c3ccccc3)oc2c1`, 6.1 µM; with `C=CC(C)(C)c1c(OCOCCOC)cc2oc(-c3ccccc3)cc(=O)c2c1O`, 0.1 µM.
Take `COCCOCOc1cc(O)c2c(=O)cc(-c3ccccc3)oc2c1CC=C(C)C`: the dissociation constant (Kd) amounted to 0.1 µM.
As for `COc1cc2oc3ccc(OC)c(OC)c3c(=O)c2c2c1C(C)(C)C(C)O2` (stereo not given), the figure is 24.8 µM; as for `C=CC(C)(C)c1c(OC)cc2oc3ccc(OC)c(OC)c3c(=O)c2c1O`, 0.25 µM.
